Results taken from patent publication US20230100838A1 (Revolution Medicines, Inc., priority 2019, published 2023).

Assays:
Format in all cases: binding
[1] = molecular target: T1, GDP-loaded K-Ras (1-169) G12D, C51S, C80L, C118S (Homo sapiens, UniProt P01116, C118S/C51S/C80L/G12D); assay: K-Ras G12D(GDP) cross-linking assay (conjugate formation, TOF mass spectrometry); conditions: Table 5; percent covalently modified K-Ras by MS; room temperature; typical compound conc. 2, 10, 25 μM, endpoints 1 and 24 h
T1 construct: GDP-loaded K-Ras (1-169) G12D, C51S, C80L, C118S
In short: (§1)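 5 μM protein (final, from 50 μM) in HEPES/NaCl/MgCl2 buffer pH 7.4 with compound typically at 2, 10 and 25 μM, room temperature, 1 and 24 h endpoints; formic acid quench. Intact-protein LC–TOF MS; percent modification is covalent adduct peak height over total K-Ras peak height.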

[2] = molecular target: T2, GDP-loaded K-Ras (1-169) C51S, C80L, C118S (Homo sapiens, UniProt P01116, C118S/C51S/C80L); assay: K-Ras WT (GDP) cross-linking assay (conjugate formation, TOF mass spectrometry); conditions: Table 5; percent covalently modified K-Ras by MS; room temperature; typical compound conc. 2, 10, 25 μM, endpoints 1 and 24 h
T2 construct: GDP-loaded K-Ras (1-169) C51S, C80L, C118S
In short: as §1

[3] = molecular target: K-Ras G12S (Homo sapiens, UniProt P01116, G12S); assay: K-Ras G12S cross-linking assay (comparable procedure, conjugate formation, TOF mass spectrometry); conditions: Table 5, percent covalently modified K-Ras by MS
In short: as §1

G12D x-linking (%) [1] | WT x-linking (%) [2] | G12S x-linking (%) [3] | SMILES
+++ (40 < x ≤ 100) | ++ (20 < x ≤ 100) | ++ (10 < x ≤ 100) | Cc1cccc2cccc(N3CCc4c(nc(OC[C@@H]5CCCN5C)nc4N4CCC(N=C=NCCCn5ccnc5)CC4)C3)c12 [Example 88, N-(3-(1H-imidazol-1-yl)propyl)-N-(1-(7-(8-methylnaphthalen-1-yl)-2-(((S)-1-methylpyrrolidin-2-yl)methoxy)-5,6,7,8-tetrahydropyrido[3,4-d]pyrimidin-4-yl)piperidin-4-yl)methanediimine]
+ (0 < x ≤ 20) | + (0 < x ≤ 20) | + (0 < x ≤ 10) | Cc1cccc2cccc(N3CCc4c(nc(OC[C@@H]5CCCN5C)nc4N4CCC(N=C=NCCN(C)c5ccccc5)CC4)C3)c12 [Example 89, N-methyl-N-(2-((((1-(7-(8-methylnaphthalen-1-yl)-2-(((S)-1-methylpyrrolidin-2-yl)methoxy)-5,6,7,8-tetrahydropyrido[3,4-d]pyrimidin-4-yl)piperidin-4-yl)imino)methylene)amino)ethyl)aniline]
+ (0 < x ≤ 20) | + (0 < x ≤ 20) | + (0 < x ≤ 10) | Cc1cccc2cccc(N3CCc4c(nc(OC[C@@H]5CCCN5C)nc4N4CCC(N=C=NCCCN(C)c5ccccc5)CC4)C3)c12 [Example 90, N-methyl-N-(3-((((1-(7-(8-methylnaphthalen-1-yl)-2-(((S)-1-methylpyrrolidin-2-yl)methoxy)-5,6,7,8-tetrahydropyrido[3,4-d]pyrimidin-4-yl)piperidin-4-yl)imino)methylene)amino)propyl)aniline]
++ (20 < x ≤ 40) | + (0 < x ≤ 20) | + (0 < x ≤ 10) | Cc1cccc2cccc(N3CCc4c(nc(OC[C@@H]5CCCN5C)nc4N4CCC(N=C=NCCCN(C)c5ccccn5)CC4)C3)c12 [Example 91, N-methyl-N-(3-((((1-(7-(8-methylnaphthalen-1-yl)-2-(((S)-1-methylpyrrolidin-2-yl)methoxy)-5,6,7,8-tetrahydropyrido[3,4-d]pyrimidin-4-yl)piperidin-4-yl)imino)methylene)amino)propyl)pyridin-2-amine]
+++ (40 < x ≤ 100) | ++ (20 < x ≤ 100) | ++ (10 < x ≤ 100) | Cc1cccc2cccc(N3CCc4c(nc(OC[C@@H]5CCCN5C)nc4N4CCC(N=C=NCCN(C)c5ccncn5)CC4)C3)c12 [Example 92, N-methyl-N-(2-((((1-(7-(8-methylnaphthalen-1-yl)-2-(((S)-1-methylpyrrolidin-2-yl)methoxy)-5,6,7,8-tetrahydropyrido[3,4-d]pyrimidin-4-yl)piperidin-4-yl)imino)methylene)amino)ethyl)pyrimidin-4-amine]
++ (20 < x ≤ 40) | + (0 < x ≤ 20) | + (0 < x ≤ 10) | CSCCCN=C=NC1CCN(c2nc(OC[C@@H]3CCCN3C)nc3c2CCN(c2cccc4cccc(C)c24)C3)CC1 [Example 93, N-(1-(7-(8-methylnaphthalen-1-yl)-2-(((S)-1-methylpyrrolidin-2-yl)methoxy)-5,6,7,8-tetrahydropyrido[3,4-d]pyrimidin-4-yl)piperidin-4-yl)-N-(3-(methylthio)propyl)methanediimine]
+ (0 < x ≤ 20) | + (0 < x ≤ 20) | + (0 < x ≤ 10) | Cc1cccc2cccc(N3CCc4c(nc(OC[C@@H]5CCCN5C)nc4N4CCC(N=C=NCc5cccs5)CC4)C3)c12 [Example 94, N-(1-(7-(8-methylnaphthalen-1-yl)-2-(((S)-1-methylpyrrolidin-2-yl)methoxy)-5,6,7,8-tetrahydropyrido[3,4-d]pyrimidin-4-yl)piperidin-4-yl)-N-(thiophen-2-ylmethyl)methanediimine]
+ (0 < x ≤ 20) | + (0 < x ≤ 20) | + (0 < x ≤ 10) | Cc1cccc2cccc(N3CCc4c(nc(OC[C@@H]5CCCN5C)nc4N4CCC(N=C=NCCc5cccs5)CC4)C3)c12 [Example 95, N-(1-(7-(8-methylnaphthalen-1-yl)-2-(((S)-1-methylpyrrolidin-2-yl)methoxy)-5,6,7,8-tetrahydropyrido[3,4-d]pyrimidin-4-yl)piperidin-4-yl)-N-(2-(thiophen-2-yl)ethyl)methanediimine]
